# Experimental data from patent publication US12637440B2, “Amide derivative useful as diacylglycerol acyltransferase 2 inhibitor, and use thereof” (LG CHEM, LTD., priority 2019, dated 2026).
# Target: T1, Recombinant human DGAT2 protein (Homo sapiens, UniProt Q96PD7)
# T1 construct: FLAG (DYKDDDDK); (N); made in house; host or cells: Sf-21 insect cells (BacPAK baculovirus system); used as a membrane preparation
# T1 sequence (Q96PD7 1-388): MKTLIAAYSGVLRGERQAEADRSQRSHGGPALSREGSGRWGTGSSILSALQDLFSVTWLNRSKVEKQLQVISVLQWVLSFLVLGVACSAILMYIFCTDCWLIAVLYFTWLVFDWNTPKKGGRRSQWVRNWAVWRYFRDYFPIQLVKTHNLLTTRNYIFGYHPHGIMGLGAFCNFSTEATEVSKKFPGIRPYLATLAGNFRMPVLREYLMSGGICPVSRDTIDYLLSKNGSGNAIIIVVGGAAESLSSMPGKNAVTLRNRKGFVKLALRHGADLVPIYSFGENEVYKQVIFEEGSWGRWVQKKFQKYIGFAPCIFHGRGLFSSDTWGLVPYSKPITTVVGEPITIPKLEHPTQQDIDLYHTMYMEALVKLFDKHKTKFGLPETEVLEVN
# Assay: Measurement of inhibitory effect against DGAT2 enzyme activity (SPA, Phospholipid FlashPlate, [14C]-TG production)
# Assay type: biochemical
# Settings: concentration inhibiting [14C]-labeled triacyl glycerol (TG) production by 50%; 2 μg DGAT2-membrane protein from Sf-21 cells, 37° C.
# Protocol: Experimental Example: Measurement of Inhibitory Effect Against DGAT2 Enzyme Activity
# In order to prepare the pBacPAK9-DGAT2, which is DGAT2 expression vector, the human DGAT2 gene amplified by polymerase chain reaction (PCR) was cloned into the EcoR1 and Xho1 sites of the pBacPAK9 (clonctech) vector. The nucleotide sequence of the primers used in PCR was the forward primer 5′ […] and the reverse primer 5′ […]. The composition of the reaction solution was to contain 50 ng of cDNA clone (OriGene), 200 μM of dATP, dCTP, dTTP, dGTP, 200 nM of each primer, 1 unit of Tag DNA Polymerase (Toyobo), 1×PCR buffer, and the final volume was adjusted to 20 μl. The reaction conditions were denatured at 95° C. for 5 minutes, followed by 30 times of 94° C. for 20 seconds, 60° C. for 20 seconds, and 72° C. for 90 seconds, followed by further reaction at 72° C. for 7 minutes.
# Recombinant human DGAT2 protein was expressed in Sf-21 cells, which are insect cells, by using the BacPack baculovirus expression system (Clontech). The brief manufacturing process is as follows. First, the pBacPAK9-DGAT2 expression vector was transfected with BacPAK6 virus DNA (Bsu36I digest) into sf21 cells using Bacfectin to prepare a recombinant DGAT2 expressing baculovirus. The thus prepared baculovirus was infected with Sf-21 cells at 10 MOI (multiplicity of infection), and after 72 hours, infected insect cells were collected and membrane proteins were isolated. For membrane protein separation, the cell pellet was dissolved in a sucrose solution containing 250 mM sucrose, 10 mM Tris (pH 7.4), and 1 mM ethylenediamine-tetraacetic acid (EDTA), and then homogenized by using a dounce homogenizer, and the supernatant was taken by centrifuging at 600×g for 15 minutes, and centrifuged at 100,000×g for 1 hour to discard the supernatant, and the remaining pellet was resuspended in 20 mM HEPES buffer (pH 7.4). The prepared DGAT2 overexpressing membrane protein was dispensed in 100 μl and stored at −80° C. until use. Protein concentration was quantified by using the BCA Protein Assay Kit (Thermo Scientific).
# In vitro DGAT2 analysis was performed using a Phospholipid Flash Plate (PerkinElmer) based on the principle of SPA (Scintillation Proximity Assay). First, DGAT2 inhibition compounds serially diluted 5 times from 3 nM to 10 μM (final concentration, 1% DMSO) were mixed in a buffer solution containing 2 μg DGAT2-membrane protein and 20 mM HEPES, 20 mM MgCl2, 1 mg/mL BSA, 50 μM 1,2 sn-oleoyl glycerol (Sigma), put in a 96-well flash plate (FlashPlate) and reacted at 37° C. for 20 minutes, and then 1 μM [14C] ole oil CoA (PerkinElmer, NEC651050UC) was added to be a final volume of 100 μL and further reacted at 37° C. for 15 minutes. After the enzymatic reaction was completed, 100 μL of isopropanol was added, the plate was sealed with a film, and the plate was shaken slowly in a plate shaker. The next day, the amplified scintillation signal (cpm) in Topcounter (Packard) was measured to measure the degree of production of [14C]-labeled triacyl glycerol (TG) as a reaction product. The measured value when the compound was not treated was used as a positive control, and the measured value of the compound treated group was calculated as a relative % to measure the inhibition effect of the compound on TG production.
row,Structure (SMILES),IC50 [nM]
1,"CCOc1ccccc1O[C@@H]1CCCN(c2cncc(NC(=O)Cc3cccc(Cl)c3)n2)C1 [Example 30, (R)-2-(3-chlorophenyl)-N-(6-(3-(2-ethoxyphenoxy)piperidin-1-yl)pyrazin-2-yl)acetamide]",29
2,"CCOc1ccccc1O[C@@H]1CCCN(c2cncc(NC(=O)C(C)(C)c3ccccc3)n2)C1 [Example 31, (R)—N-(6-(3-(2-ethoxyphenoxy)piperidin-1-yl)pyrazin-2-yl)-2-methyl-2-phenylpropanamide]",180
3,"CCOc1ccccc1O[C@@H]1CCCN(c2cncc(NC(=O)Cc3cccc(C(=O)O)c3)n2)C1 [Example 33, (R)-3-(2-((6-(3-(2-ethoxyphenoxy)piperidin-1-yl)pyrazin-2-yl)amino)-2-oxoethyl)benzoic acid]",4500
4,"CCOc1ccccc1O[C@@H]1CCCN(c2cncc(NC(=O)Cc3ccc(CC(=O)O)cc3)n2)C1 [Example 34, (R)-2-(4-(2-((6-(3-(2-ethoxyphenoxy)piperidin-1-yl)pyrazin-2-yl)amino)-2-oxoethyl)phenyl)acetic acid]",1100
5,CCOc1ccccc1O[C@@H]1CCCN(c2cncc(NC(=O)Cc3ccc(CC(N)=O)cc3)n2)C1 [Example 35],30
6,"CCOc1ccccc1O[C@@H]1CCCN(c2cncc(NC(=O)Cc3ccc(O)cc3)n2)C1 [Example 36, (R)—N-(6-(3-(2-ethoxyphenoxy)piperidin-1-yl)pyrazin-2-yl)-2-(4-hydroxyphenyl)acetamide]",12
7,"CCOc1ccccc1O[C@@H]1CCCN(c2cncc(NC(=O)Cc3ccc(OCCCC(=O)O)cc3)n2)C1 [Example 37, (R)-4-(4-(2-((6-(3-(2-ethoxyphenoxy)piperidin-1-yl)pyrazin-2-yl)amino)-2-oxoethyl)phenoxy)butanoic acid]",460
8,CCOc1ccccc1O[C@@H]1CCCN(c2cncc(NC(=O)Cc3ccc(OC(C)(C)C(=O)O)cc3)n2)C1 [Example 38],200
9,"CCOc1ccccc1O[C@@H]1CCCN(c2cncc(NC(=O)C(C)(C)c3ccc(C(C)(C)C(=O)O)cc3)n2)C1 [Example 39, (R)-2-(4-(1-((6-(3-(2-ethoxyphenoxy)piperidin-1-yl)pyrazin-2-yl)amino)-2-methyl-1-oxopropan-2-yl)phenyl)-2-methylpropanoic acid]",770
10,"CCOc1ccccc1O[C@@H]1CCCN(c2cncc(NC(=O)/C=C/c3ccc(C(=O)O)cc3)n2)C1 [Example 41, (R,E)-4-(3-((6-(3-(2-ethoxyphenoxy)piperidin-1-yl)pyrazin-2-yl)amino)-3-oxoprop-1-en-1-yl)benzoic acid]",3100
11,"CCOc1ccccc1O[C@@H]1CCCN(c2cncc(NC(=O)/C(C)=C/c3ccc(C(=O)O)cc3)n2)C1 [Example 42, (R,E)-4-(3-((6-(3-(2-ethoxyphenoxy)piperidin-1-yl)pyrazin-2-yl)amino)-2-methyl-3-oxoprop-1-en-1-yl)benzoic acid]",1300
12,"CCOc1ccccc1O[C@@H]1CCCN(c2cncc(NC(=O)C(C)Cc3ccc(C(=O)O)cc3)n2)C1 (stereo partly drawn) [Example 43, 4-(3-((6-((R)-3-(2-ethoxyphenoxy)piperidin-1-yl)pyrazin-2-yl)amino)-2-methyl-3-oxopropyl)benzoic acid]",330
13,"CCOc1ccccc1O[C@@H]1CCCN(c2cncc(NC(=O)CCc3ccc(C(=O)O)c(F)c3)n2)C1 [Example 44, (R)-4-(3-((6-(3-(2-ethoxyphenoxy)piperidin-1-yl)pyrazin-2-yl)amino)-3-oxopropyl)-2-fluorobenzoic acid]",170
14,"CCOc1ccccc1O[C@@H]1CCCN(c2cncc(NC(=O)CCc3ccc(C(=O)O)c(C)c3)n2)C1 [Example 45, (R)-4-(3-((6-(3-(2-ethoxyphenoxy)piperidin-1-yl)pyrazin-2-yl)amino)-3-oxopropyl)-2-methylbenzoic acid]",150
15,"CCOc1ccccc1O[C@@H]1CCCN(c2cncc(NC(=O)CCc3ccc(C(=O)O)c(OC)c3)n2)C1 [Example 46, (R)-4-(3-((6-(3-(2-ethoxyphenoxy)piperidin-1-yl)pyrazin-2-yl)amino)-3-oxopropyl)-2-methoxybenzoic acid]",510
16,"CCOc1ccccc1O[C@@H]1CCCN(c2cncc(NC(=O)CCc3ccc(C(=O)O)c(Cl)c3)n2)C1 [Example 47, (R)-2-chloro-4-(3-((6-(3-(2-ethoxyphenoxy)piperidin-1-yl)pyrazin-2-yl)amino)-3-oxopropyl)benzoic acid]",310
17,"CCOc1ccccc1O[C@@H]1CCCN(c2cncc(NC(=O)CCc3cccc(C(=O)O)c3)n2)C1 [Example 48, (R)-3-(3-((6-(3-(2-ethoxyphenoxy)piperidin-1-yl)pyrazin-2-yl)amino)-3-oxopropyl)benzoic acid]",710
18,"CCOc1ccccc1O[C@@H]1CCCN(c2cncc(NC(=O)CCc3ccc(CC(=O)O)cc3)n2)C1 [Example 49, (R)-2-(4-(3-((6-(3-(2-ethoxyphenoxy)piperidin-1-yl)pyrazin-2-yl)amino)-3-oxopropyl)phenyl)acetic acid]",100
19,CCOc1ccccc1O[C@@H]1CCCN(c2cncc(NC(=O)CCc3ccc(CC(N)=O)cc3)n2)C1 [Example 50],9.6
20,"CCOc1ccccc1O[C@@H]1CCCN(c2cncc(NC(=O)CCc3ccc(C(C)(C)C(=O)O)cc3)n2)C1 [Example 51, (R)-2-(4-(3-((6-(3-(2-ethoxyphenoxy)piperidin-1-yl)pyrazin-2-yl)amino)-3-oxopropyl)phenyl)-2-methylpropanoic acid]",33
21,"CCOc1ccccc1O[C@@H]1CCCN(c2cncc(NC(=O)CCc3ccc(C4(C(=O)O)CC4)cc3)n2)C1 [Example 52, (R)-1-(4-(3-((6-(3-(2-ethoxyphenoxy)piperidin-1-yl)pyrazin-2-yl)amino)-3-oxopropyl)phenyl)cyclopropane-1-carboxylic acid]",66
22,"CCOc1ccccc1O[C@@H]1CCCN(c2cncc(NC(=O)CCc3cc(F)c(C(=O)O)c(F)c3)n2)C1 [Example 53, (R)-4-(3-((6-(3-(2-ethoxyphenoxy)piperidin-1-yl)pyrazin-2-yl)amino)-3-oxopropyl)-2,6-difluorobenzoic acid]",390
23,"CCOc1ccccc1O[C@@H]1CCCN(c2cncc(NC(=O)CCc3cc(Cl)c(C(=O)O)c(Cl)c3)n2)C1 [Example 54, (R)-2,6-dichloro-4-(3-((6-(3-(2-ethoxyphenoxy)piperidin-1-yl)pyrazin-2-yl)amino)-3-oxopropyl)benzoic acid]",88
24,"CCOc1ccccc1O[C@@H]1CCCN(c2cncc(NC(=O)CCc3cc(C)c(C(=O)O)c(C)c3)n2)C1 [Example 55, (R)-4-(3-((6-(3-(2-ethoxyphenoxy)piperidin-1-yl)pyrazin-2-yl)amino)-3-oxopropyl)-2,6-dimethylbenzoic acid]",280
25,"CCOc1ccccc1O[C@@H]1CCCN(c2cncc(NC(=O)CCc3ccc(N4CCC(C(=O)O)CC4)cc3)n2)C1 [Example 56, (R)-1-(4-(3-((6-(3-(2-ethoxyphenoxy)piperidin-1-yl)pyrazin-2-yl)amino)-3-oxopropyl)phenyl)piperidine-4-carboxylic acid]",820
26,CCOc1ccccc1O[C@@H]1CCCN(c2cncc(NC(=O)c3cc(F)c(N4CCC(C(=O)O)CC4)c(F)c3)n2)C1 [Example 57],5300
